Results from US20260306464A1, “LINAPRAZAN GLURATE FOR TREATING GASTROESOPHAGEAL REFLUX DISEASE (GERD)” (Cinclus Pharma Holding AB (publ), priority 2023, published 2026).

Tests used:
[1] = background statement; cited from earlier work
[2] = LEED study: heartburn assessed by mRESQ-eDiary; format: in vivo, human; conditions: for % at most mild symptoms 24-hour days (mean) / % heartburn-free 24-hour days (mean) / Patients (%) totally free from heartburn / Patients (%) with at most mild heartburn / Patients (%) with non-mild heartburn: week 4, erosive patients all LA grades
Excerpt: Relief of reflux-related symptoms may be assessed based on the modified Reflux Symptom Reflux Questionnaire-electronic Diary (mRESQ-eDiary), which is an electronic symptom diary developed for use in partial responders to proton pump inhibitors. mRESQ-eD has three domains (i.e., heartburn, other GERD signs/symptoms and regurgitations/reflux) and eight items (Andrae et al., Clin. Transl. Gastroenterol. 2020, 11(1): e00117).
The study was a randomized, double-blind, active comparator-controlled study with a parallel group design including four arms with linaprazan glurate and one arm with lansoprazole. Pharmacokinetic (PK) blood sampling pre-dose, close before the first and the second dose administration was performed at Day 7, Day 14 and Day 28 visits days in all patients. 248 patients with erosive esophagitis due to GERD LA grade C or D and patients with erosive esophagitis due to GERD LA grade A or B with at least partial symptom response but still endoscopically unhealed after 8 weeks history of standard treatment healing course with PPI, were randomized.
Randomization to one of the treatments with linaprazan glurate 25 mg, 50 mg, 75 mg, 100 mg twice daily (BID), or lansoprazole 30 mg once daily (QD) was based on a 1:1:1:1:1 scheme. One site could not enroll more than about 20% of the overall number of patients (48 patients per site).
The duration of each patient's participation in the study, including screening, blind treatment period and open-label treatment period, was approximately 60 days. The patients were randomized for 4 weeks (28 days, −2/+5 days) of double-blind treatment and were provided with IMP for 35 days (including one additional blister pack dispensed at Visit 2/Day 0) to allow for treatment up to the visit window. […] Following the endoscopic evaluation, all patients received subsequent 4 weeks of open-label treatment with lansoprazole 30 mg QD. Repeated symptom evaluation to detect symptom pattern was assessed during this period.
Four doses of linaprazan glurate (25 mg, 50 mg, 75 mg, 100 mg, and dummies) were administered as tablets twice daily. The active comparator lansoprazole 30 mg and its dummy were administered as capsules once daily in the morning. The study drugs were taken with 100 mL of noncarbonated water at least 30 minutes prior to meals. The duration of double-blind treatment was 28 days −2/+5 days. To blind treatment, each patient received 2 tablets (containing doses of linaprazan glurate (LG) or its dummy) and one capsule (containing lansoprazole or its dummy) in the morning and 2 tablets (containing doses of linaprazan glurate (LG) or its dummy) in the evening, according to the scheme below:
A secondary objective of the study was the safety and tolerability of the four dose levels of linaprazan glurate and lansoprazole, with lansoprazole serving as the active comparator. Another secondary objective of the study was the reflux related symptom pattern during the initial 4 weeks treatment with four dose levels of linaprazan glurate and with lansoprazole, and the symptom pattern during the subsequent additional 4 weeks (weeks 5-8) open-label treatment with lansoprazole 30 mg QD. Heartburn-free 24-hour days and 24-hour days with at most mild heartburn symptoms were assessed based on modified eDiary (mRESQ-eD), including splits into day- and nighttime evaluations.
Reflux related symptoms were assessed based on a modified RESQ-eDiary (mRESQ-eD). Patients were asked to report every 12-hours, once before the morning dose and once before the evening dose of the Investigational Medicinal Product (IMP).

intragastric pH = experiment: Phase I: plasma concentration of linaprazan vs. intragastric pH; format: in vivo, human; conditions: Phase I studies
Excerpt: The plasma concentration of linaprazan glurate is only very low and difficult to determine, but the plasma concentration of linaprazan may be determined instead.

[3] = test system: gastric hydrogen potassium pump (H+/K+ ATPase); conditions: healthy subjects; cited from earlier work

Cc1cccc(C)c1CNc1cc(C(=O)NCCOC(=O)CCCC(=O)O)cn2c(C)c(C)nc12 [linaprazan glurate, 5-{2-[({8-[(2,6-dimethylbenzyl)amino]-2,3-dimethylimidazo[1,2-a]pyridine-6-yl}carbonyl)-amino]ethoxy}-5-oxopentanoic acid]
plasma half-life [1]: approximately 10 hours
heartburn severity, rank among groups ([2]; FAS Erosive, first week, morning and evening, LG 75 mg BID): lowest heartburn severity
percentage of symptom free days (highest of groups) ([2]; FAS Erosive, week 1, LG 75 mg BID): 33.3%
heartburn-free days vs lansoprazole ([2]; FAS Erosive, week 1 to 4, all LG groups): more heartburn-free days
percentage of symptom free days (highest of groups) ([2]; FAS Erosive, week 2, LG 75 mg BID): 57.2%
percentage of symptom free days (highest of groups) ([2]; FAS Erosive, week 3, LG 75 mg BID): 62.6%
percentage of symptom free days (highest of groups) ([2]; FAS Erosive, week 4, LG 100 mg BID): 65.2%
percentage of heartburn-free days (highest of groups) ([2]; FAS Erosive, week 5 open-label lansoprazole, former LG 75 mg group): 72.6%
heartburn-free days vs lansoprazole ([2]; FAS Erosive, week 5 to 8 open-label (all on lansoprazole 30 mg QD), former LG groups): more heartburn-free days
percentage of heartburn-free days (highest of groups) ([2]; FAS Erosive, week 6 open-label lansoprazole, former LG 75 mg group): 73.0%
percentage of heartburn-free days (highest of groups) ([2]; FAS Erosive, week 7 open-label lansoprazole, former LG 25 mg group): 81.9%
percentage of heartburn-free days (highest of groups) ([2]; FAS Erosive, week 8 open-label lansoprazole, former LG 25 mg group): 87.6%
severity grade of heartburn, rank among groups ([2]; FAS, first week, morning and evening, LG 75 mg BID): lowest severity grade
percentage of symptom free days (highest of groups) ([2]; FAS, week 1, LG 75 mg BID): 29.2%
heartburn-free days vs lansoprazole ([2]; FAS, week 1 to 4, all LG groups): more heartburn-free days
percentage of symptom free days (highest of groups) ([2]; FAS, week 2, LG 75 mg BID): 52.9%
percentage of symptom free days (highest of groups) ([2]; FAS, week 4, LG 100 mg BID): 62.2%
percentage of heartburn-free days (highest of groups) ([2]; FAS, week 5 open-label lansoprazole, former LG 75 mg group): 69.6%
heartburn-free days vs lansoprazole ([2]; FAS, week 5 to 8 open-label (all on lansoprazole 30 mg QD), former LG groups): more heartburn-free days
percentage of heartburn-free days (highest of groups) ([2]; FAS, week 7 open-label lansoprazole, former LG 25 mg group): 79.4%
percentage of heartburn-free days (highest of groups) ([2]; FAS, week 8 open-label lansoprazole, former LG 25 mg group): 82.4%
heartburn-free days, rank among groups ([2]; LA Grade A/B, week 1 to 3, LG 75 mg BID): highest percentage of heartburn-free days
heartburn-free days, rank among groups ([2]; LA Grade A/B, week 5 open-label lansoprazole, former LG 75 mg group): highest percentage of heartburn-free days
heartburn-free days, rank among groups ([2]; LA Grade A/B, weeks 7 and 8 open-label lansoprazole, former LG 25 mg group): highest percentage of heartburn-free days
heartburn-free days, rank among groups ([2]; LA Grade C/D, week 1 and 4, LG 50 mg BID): highest percentage of heartburn-free days
heartburn-free days, rank among groups ([2]; LA Grade C/D, week 2, LG 75 mg BID): highest percentage of heartburn-free days
heartburn-free days, rank among groups ([2]; LA Grade C/D, week 3, LG 100 mg BID): highest percentage of heartburn-free days
heartburn-free days, rank among groups ([2]; LA Grade C/D, week 5 open-label lansoprazole, former LG 50 mg group): highest percentage of heartburn-free days
heartburn-free days, rank among groups ([2]; LA Grade C/D, week 6 to 8 open-label lansoprazole, former LG 75 mg group): highest percentage of heartburn-free days
% at most mild symptoms 24-hour days (mean) ([2]; LG 25 mg BID (N = 21)): 96%
% heartburn-free 24-hour days (mean) ([2]; LG 25 mg BID (N = 21)): 52%
Patients (%) totally free from heartburn ([2]; LG 25 mg BID (N = 21)): 45%
Patients (%) with at most mild heartburn ([2]; LG 25 mg BID (N = 21)): 97%
Patients (%) with non-mild heartburn ([2]; LG 25 mg BID (N = 21)): 6%
% at most mild symptoms 24-hour days (mean) ([2]; LG 50 mg BID (N = 27)): 96%
% heartburn-free 24-hour days (mean) ([2]; LG 50 mg BID (N = 27)): 56%
Patients (%) totally free from heartburn ([2]; LG 50 mg BID (N = 27)): 44%
Patients (%) with at most mild heartburn ([2]; LG 50 mg BID (N = 27)): 97%
Patients (%) with non-mild heartburn ([2]; LG 50 mg BID (N = 27)): 6%
% at most mild symptoms 24-hour days (mean) ([2]; LG 75 mg BID (N = 20)): 97%
% heartburn-free 24-hour days (mean) ([2]; LG 75 mg BID (N = 20)): 56%
Patients (%) totally free from heartburn ([2]; LG 75 mg BID (N = 20)): 50%
Patients (%) with at most mild heartburn ([2]; LG 75 mg BID (N = 20)): 87%
Patients (%) with non-mild heartburn ([2]; LG 75 mg BID (N = 20)): 13%
% at most mild symptoms 24-hour days (mean) ([2]; LG 100 mg BID (N = 19)): 100%
% heartburn-free 24-hour days (mean) ([2]; LG 100 mg BID (N = 19)): 76%
Patients (%) totally free from heartburn ([2]; LG 100 mg BID (N = 19)): 63%
Patients (%) with at most mild heartburn ([2]; LG 100 mg BID (N = 19)): 92%
Patients (%) with non-mild heartburn ([2]; LG 100 mg BID (N = 19)): 8%
pH control (intragastric pH): dose dependent
intragastric pH two hours after the first dose [3]: Neutral intragastric pH
